Some test systems named below: MCF7 breast; U251 CNS; OVCAR-3 ovarian; SF-539 CNS; SK-MEL-28 melanoma; MOLT-4 leukemia; IGROV1 ovarian; OVCAR-5 ovarian; TK-10 renal; MALME-3M melanoma.
Holding throughout (assay): NCI tumour cell line growth inhibition, 48 h

Molecules are shown by their SMILES. Several values for one entry are separate records, joined by “and”; a condition that tells them apart may be missing. Identical values can stand only once.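 Five compound concentrations were applied to cells in 96-well plates for 48 hours; endpoints were derived by simple linear interpolation of the resulting dose-response curve. GI50 is the concentration that inhibits growth by half. TGI: total growth inhibition.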

With `N#Cc1c(N)nc(N2CCOCC2)c(C#N)c1-c1ccc(Cl)cc1`, the GI50 was 23.2 µM in the test on MCF7 breast; 38.3 µM in the test on U251 CNS; 27.8 µM in the test with OVCAR-3 ovarian; 49 µM with SF-539 CNS; 70.9 µM in the test on SK-MEL-28 melanoma; 43.7 µM with MOLT-4 leukemia. In addition, the GI50 is 14 µM with IGROV1 ovarian and 80.4 µM in the test with OVCAR-5 ovarian. Further, the TGI with MCF7 breast, in the test on U251 CNS, in the test on OVCAR-3 ovarian, with SF-539 CNS, with SK-MEL-28 melanoma and in the test with MOLT-4 leukemia was > 100 µM in each case. The TGI in the test on IGROV1 ovarian was 46.4 µM; in the test with OVCAR-5 ovarian, > 100 µM.

With `O=C1CC(c2ccc3c(c2)OCO3)Nc2cc3c(cc21)OCO3` (stereo not given), the GI50 with MCF7 breast is 0.364 µM; in the test with U251 CNS, 0.544 µM; in the test with OVCAR-3 ovarian, 0.344 µM; in the test with SF-539 CNS, 0.301 µM; in the test on TK-10 renal, 2.77 µM; in the test with MOLT-4 leukemia, 0.56 µM. Besides, the GI50 in the test with OVCAR-5 ovarian is 2.3 µM. Moreover, the TGI in the test with MCF7 breast is > 100 µM; in the test on U251 CNS it was > 100 µM; in the test on OVCAR-3 ovarian, 1.45 µM; with SF-539 CNS, 1.2 µM; in the test with TK-10 renal it was > 100 µM; with MOLT-4 leukemia it was > 100 µM. Besides, the TGI with OVCAR-5 ovarian was > 100 µM.

As for `Cc1ccc(/C=C2/SC(Nc3nc(-c4nc(NC5=NC(=O)/C(=C\c6ccc(C)cc6)S5)sc4C)c(C)s3)=NC2=O)cc1`, the GI50 in the test with MCF7 breast was 1.01 µM; in the test on U251 CNS, 0.322 µM; in the test on OVCAR-3 ovarian it was 0.329 µM; with SF-539 CNS, 0.379 µM; in the test on SK-MEL-28 melanoma it was 35.3 µM; with TK-10 renal it was 0.288 µM. The GI50 with MOLT-4 leukemia is > 19.7 µM; in the test on IGROV1 ovarian, 7.29 µM; with OVCAR-5 ovarian, 8.05 µM. Also, the TGI was > 50 µM in the test with MCF7 breast; 38.9 µM with U251 CNS; 1.51 µM with OVCAR-3 ovarian; 1.84 µM in the test with SF-539 CNS; > 50 µM with SK-MEL-28 melanoma; 1.21 µM in the test on TK-10 renal. Further, the TGI with MOLT-4 leukemia, in the test with IGROV1 ovarian and in the test on OVCAR-5 ovarian was > 50 µM each time.

With `COC(C(=O)C(O)C(C)O)C1Cc2cc3cc(OC4CC(OC(C)=O)C(OC5CC(O)C(OC)C(C)O5)C(C)O4)cc(O)c3c(O)c2C(=O)C1OC1CC(OC2CC(OC3CC(C)(O)C(OC(=O)C(C)C)C(C)O3)C(O)C(C)O2)C(O)C(C)O1` (stereo not given), the GI50 with MCF7 breast was 0.0465 µM; with SF-539 CNS it was 0.000553 µM; with SK-MEL-28 melanoma, 0.000911 µM and 0.00146 µM. Besides, the TGI with MCF7 breast is 0.327 µM and < 0.215 µM; in the test with MOLT-4 leukemia it was 0.306 µM and 0.147 µM.

In the case of `CCN(CCNc1ccc(C)c2sc3cc(Cl)ccc3c(=O)c12)CC(C)O` (stereo not given), the GI50 is 1.5 µM with MCF7 breast; 1.94 µM in the test with U251 CNS; 3.62 µM with OVCAR-3 ovarian; 1.59 µM in the test with SF-539 CNS; 1.36 µM with MALME-3M melanoma; 1.91 µM with SK-MEL-28 melanoma. Further, the GI50 with TK-10 renal is 1.51 µM; in the test on MOLT-4 leukemia, 1.62 µM; in the test on IGROV1 ovarian, 1.25 µM. Moreover, the TGI in the test on MCF7 breast was found to be 3.01 µM; in the test on U251 CNS, 4.24 µM; in the test on OVCAR-3 ovarian, 14.3 µM; in the test on SF-539 CNS, 2.95 µM; with MALME-3M melanoma, 2.77 µM; with SK-MEL-28 melanoma, 3.4 µM. In addition, the TGI is 2.91 µM with TK-10 renal, 3.49 µM in the test with MOLT-4 leukemia and 2.78 µM in the test with IGROV1 ovarian.

On to `CN(CC(=O)O)c1ccc(/C=C/c2ccnc3ccccc23)cc1`, for which the TGI in the test with MCF7 breast is 35.2 µM; in the test with U251 CNS, 75.2 µM; with OVCAR-3 ovarian, > 100 µM; in the test on SF-539 CNS it was > 100 µM; with SK-MEL-28 melanoma it was > 100 µM; in the test with TK-10 renal it was 47.7 µM. Besides, the TGI in the test with IGROV1 ovarian is 39.4 µM; in the test on OVCAR-5 ovarian it was 94 µM.

Take `COc1ccc(-c2cnnn2-c2cc(OC)c3c(c2)OCO3)cc1`: the GI50 was 0.0463 µM with MCF7 breast; 0.231 µM in the test with U251 CNS; 0.0547 µM in the test on OVCAR-3 ovarian; 0.116 µM with SF-539 CNS; 0.58 µM with SK-MEL-28 melanoma; 25 µM in the test on TK-10 renal. The GI50 was 0.266 µM with MOLT-4 leukemia, 0.28 µM in the test with IGROV1 ovarian and 0.502 µM in the test on OVCAR-5 ovarian. Further, the TGI in the test on MCF7 breast was > 100 µM; in the test on U251 CNS it was > 100 µM; in the test on OVCAR-3 ovarian it was 0.437 µM; in the test on SF-539 CNS it was 0.411 µM; with SK-MEL-28 melanoma, > 100 µM; with TK-10 renal, > 100 µM. Further, the figures for the TGI in the test with MOLT-4 leukemia, with IGROV1 ovarian and in the test on OVCAR-5 ovarian were > 27.2 µM, > 100 µM and > 100 µM, respectively.

Regarding `O=C1C=C[C@@]23C[C@@H](Nc4c(O)c5c6c(c42)=NCCC=6C=N5)SC3=C1`, the GI50 in the test with MCF7 breast was 2 µM; in the test with U251 CNS, 2.72 µM; in the test with OVCAR-3 ovarian it was 1.5 µM; with SF-539 CNS it was 3.08 µM; in the test with SK-MEL-28 melanoma, 7.48 µM; in the test with IGROV1 ovarian, 2.01 µM. The GI50 with OVCAR-5 ovarian is 5.13 µM. Further, the TGI worked out at 4.04 µM with MCF7 breast; 7.92 µM with U251 CNS; 3.76 µM with OVCAR-3 ovarian; 9.58 µM in the test on SF-539 CNS; 2.52 µM with MALME-3M melanoma; 20.1 µM with SK-MEL-28 melanoma. Further, the TGI is 27.7 µM with TK-10 renal, 4.35 µM in the test with IGROV1 ovarian and 9.5 µM with OVCAR-5 ovarian.

Take `CCCCCCC#Cc1ccccc1C#CCO`: the GI50 in the test with MCF7 breast was 32.8 µM; with U251 CNS, 16.4 µM; in the test on OVCAR-3 ovarian, 14.5 µM; in the test on SF-539 CNS, 19 µM; in the test with SK-MEL-28 melanoma it was 18 µM; in the test with TK-10 renal, 22.6 µM. Also, the values for the GI50 in the test on IGROV1 ovarian and in the test with OVCAR-5 ovarian were 18 µM and 38.7 µM, respectively. Also, the TGI in the test with MCF7 breast was > 100 µM; with U251 CNS it was 34.6 µM; in the test with OVCAR-3 ovarian, 27.6 µM; in the test on SF-539 CNS it was 35.6 µM; with SK-MEL-28 melanoma, 45.3 µM; with TK-10 renal, 61.4 µM. For the same compound, the TGI in the test on IGROV1 ovarian is 43.3 µM; with OVCAR-5 ovarian it was > 100 µM.

For the compound `CC1=C(C(=O)Nc2cccc(Cl)c2)C(c2ccc([N+](=O)[O-])cc2)C(C(=O)Nc2cccc(Cl)c2)=C(C)N1`, the TGI in the test with U251 CNS is 56 µM; in the test on OVCAR-3 ovarian, 85.3 µM; in the test with SF-539 CNS, > 100 µM; in the test on MALME-3M melanoma, 59.5 µM; with SK-MEL-28 melanoma, > 100 µM; in the test with TK-10 renal, > 100 µM. In addition, the TGI was 56.2 µM in the test on MOLT-4 leukemia, > 100 µM in the test on IGROV1 ovarian and > 100 µM with OVCAR-5 ovarian.

Regarding `CN(C)CCNC(=O)c1ccc(C(=O)NCCN(C)C)c2nc3ccccc3cc12`, the TGI was 7.85 µM with U251 CNS; 9.91 µM in the test on OVCAR-3 ovarian; 2.01 µM with SF-539 CNS; 2.97 µM in the test on MALME-3M melanoma; 3.89 µM in the test with SK-MEL-28 melanoma; 5.08 µM with TK-10 renal. For the same compound, the TGI with MOLT-4 leukemia was 1.56 µM; with IGROV1 ovarian it was > 50.2 µM; in the test on OVCAR-5 ovarian it was 3.78 µM.

Turning to `CCCCCCCCCCC(O)[C@H]1CCC(C2CC[C@H]([C@H](O)CCCCCCCCCCC(O)CC3=CC(C)OC3=O)O2)O1` (stereo not given in full), the TGI in the test with MCF7 breast was 4.44 µM; with U251 CNS, > 100 µM; with OVCAR-3 ovarian, 4.01 µM and 3.32 µM; in the test on SF-539 CNS it was 2.9 µM and 5.61 µM; in the test on MALME-3M melanoma it was 4.32 µM; in the test on SK-MEL-28 melanoma, 7.73 µM. The TGI in the test on MOLT-4 leukemia came to 3.69 µM; in the test on OVCAR-5 ovarian it was 9.11 µM. For the same compound, the GI50 in the test on U251 CNS is 3.58 µM; in the test on OVCAR-3 ovarian, 0.674 µM; in the test on TK-10 renal, 4.05 µM; with OVCAR-5 ovarian, 2.58 µM.

Turning to `C=CCN(N=O)C(=O)N(CCCC(NC(C)=O)C(=O)NCc1ccccc1)Cc1ccccc1` (stereo not given), the TGI with U251 CNS, in the test with OVCAR-3 ovarian, in the test with SF-539 CNS, with MALME-3M melanoma, in the test with SK-MEL-28 melanoma and with TK-10 renal was > 100 µM each time. Besides, the TGI was 58.3 µM with MOLT-4 leukemia, > 100 µM in the test with IGROV1 ovarian and > 100 µM in the test with OVCAR-5 ovarian.

Take `Cc1cccc(NC(=O)c2cc3cc(N=Nc4ccccc4Cl)ccc3oc2=O)c1`: the TGI in the test with U251 CNS was > 100 µM; in the test with OVCAR-3 ovarian, > 100 µM; with SF-539 CNS, 94.9 µM; with MALME-3M melanoma it was > 100 µM; in the test with SK-MEL-28 melanoma, > 100 µM; in the test on TK-10 renal it was 86.2 µM. Further, the TGI in the test with MOLT-4 leukemia was > 100 µM; in the test on IGROV1 ovarian, > 100 µM; in the test on OVCAR-5 ovarian it was 56.8 µM.

As to `COc1ccc(-c2cc(-c3ccccc3)nc(N3CCN(CCNc4ccnc5cc(Cl)ccc45)CC3)n2)cc1`, the GI50 was 1.71 µM with MCF7 breast; 1.56 µM in the test on U251 CNS; 1.89 µM in the test with OVCAR-3 ovarian; 1.53 µM in the test with SF-539 CNS; 1.61 µM in the test on MALME-3M melanoma; 1.52 µM in the test with SK-MEL-28 melanoma. For the same compound, the GI50 was 2.19 µM in the test with TK-10 renal, 1.48 µM in the test with IGROV1 ovarian and 1.92 µM in the test with OVCAR-5 ovarian. Further, the TGI is 3.45 µM in the test on MCF7 breast; 3.45 µM in the test with U251 CNS; 3.69 µM in the test on OVCAR-3 ovarian; 3.06 µM in the test on SF-539 CNS; 3.14 µM in the test on MALME-3M melanoma; 2.94 µM in the test with SK-MEL-28 melanoma. The TGI came to 4.88 µM in the test on TK-10 renal, 3.19 µM in the test on IGROV1 ovarian and 4.99 µM with OVCAR-5 ovarian.

The values above are taken from PubChem BioAssay (NCI).
